The text below walks through data of PMC11558128 (Advanced Science, 2024).

The structures appear in SMILES notation. Substitutions are numbered along the chain they refer to. Like-named read-outs stand apart in the source and are kept apart here. Positions of bridges follow the written chain, without caps; N, C: chain ends. Residues, ends and D or L forms follow the SMILES beside them. A value given as a limit tells only on which side of the number the result lay.

Common to all, as to experiment: cell-based
For one assay, the target named is T1, rKv4.2 (Rattus norvegicus, UniProt Q63881).
T1 construct: expressed in transfected cells; host or cells: HEK293T
T1 sequence (Q63881 1-630): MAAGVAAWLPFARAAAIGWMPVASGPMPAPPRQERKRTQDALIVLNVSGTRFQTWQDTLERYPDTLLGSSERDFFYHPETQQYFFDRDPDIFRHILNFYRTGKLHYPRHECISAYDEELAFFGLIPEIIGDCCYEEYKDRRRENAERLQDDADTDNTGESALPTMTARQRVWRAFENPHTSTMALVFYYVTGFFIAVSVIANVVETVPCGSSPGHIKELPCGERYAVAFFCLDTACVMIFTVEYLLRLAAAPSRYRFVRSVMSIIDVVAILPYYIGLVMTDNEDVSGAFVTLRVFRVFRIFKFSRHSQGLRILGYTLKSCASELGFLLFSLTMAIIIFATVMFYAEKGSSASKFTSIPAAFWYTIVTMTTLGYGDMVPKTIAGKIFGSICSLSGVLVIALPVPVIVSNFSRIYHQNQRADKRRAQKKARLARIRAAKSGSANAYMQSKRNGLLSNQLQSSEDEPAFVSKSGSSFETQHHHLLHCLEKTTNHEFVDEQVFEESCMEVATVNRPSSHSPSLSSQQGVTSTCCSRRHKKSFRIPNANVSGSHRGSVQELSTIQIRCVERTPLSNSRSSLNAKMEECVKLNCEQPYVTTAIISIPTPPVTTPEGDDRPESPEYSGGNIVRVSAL
The conditions noted are these: whole-cell patch clamp, HEK293T, n = 3-8, SEM.

Another assay has as its target T2, rKv4.3 (Rattus norvegicus, UniProt Q62897).
T2 construct: expressed in transfected cells; host or cells: HEK293T
T2 sequence (Q62897 1-655): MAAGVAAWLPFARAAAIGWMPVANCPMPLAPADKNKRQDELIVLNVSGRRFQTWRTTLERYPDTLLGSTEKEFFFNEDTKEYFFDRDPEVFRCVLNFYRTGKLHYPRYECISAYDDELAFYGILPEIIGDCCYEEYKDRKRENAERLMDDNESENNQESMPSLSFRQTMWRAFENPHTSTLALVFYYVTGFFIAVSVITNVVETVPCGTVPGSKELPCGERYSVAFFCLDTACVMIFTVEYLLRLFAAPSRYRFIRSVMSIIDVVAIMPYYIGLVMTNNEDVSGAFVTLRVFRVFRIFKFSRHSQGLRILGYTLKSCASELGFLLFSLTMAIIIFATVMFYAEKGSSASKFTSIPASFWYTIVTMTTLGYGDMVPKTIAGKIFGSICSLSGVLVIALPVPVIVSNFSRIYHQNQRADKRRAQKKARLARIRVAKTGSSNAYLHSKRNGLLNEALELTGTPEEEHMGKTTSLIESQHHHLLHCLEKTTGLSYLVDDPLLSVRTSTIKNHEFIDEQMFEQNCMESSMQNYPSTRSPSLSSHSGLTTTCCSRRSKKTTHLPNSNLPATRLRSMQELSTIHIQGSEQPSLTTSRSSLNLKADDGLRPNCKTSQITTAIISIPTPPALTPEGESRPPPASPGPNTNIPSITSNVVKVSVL
The conditions noted are these: whole-cell patch clamp, HEK293T, mean ± S.E.M., SEM.

The next assay deals with T3, rKv4.2 N282A (Rattus norvegicus, UniProt Q63881, N282A).
T3 construct: expressed in transfected cells; host or cells: HEK293T
T3 sequence (Q63881 1-630 N282A): T1 sequence (Q63881 1-630) with N282A
The conditions noted are these: mean ± SEM.

For the next assay, the target named is T4, rKv4.2 D284K (Rattus norvegicus, UniProt Q63881, D284K).
T4 construct: expressed in transfected cells; host or cells: HEK293T
T4 sequence (Q63881 1-630 D284K): T1 sequence (Q63881 1-630) with D284K
Conditions: mean ± SEM.

Setting [1] is: mean ± SEM, read-out: IC50 on rKv4.2 WT.
Setting [2] is: held at -80 mV, step to 0 mV, n = 3-8.

With `CC(C)C[C@H](NC(=O)[C@H](Cc1ccc(O)cc1)NC(=O)[C@@H](NC(=O)[C@H](CCCCN)NC(=O)[C@@H]1CSSC[C@@H]2NC(=O)[C@H](CCC(=O)O)NC(=O)[C@H](CC(N)=O)NC(=O)[C@H](CCCCN)NC(=O)CNC(=O)[C@@H]3CCCN3C(=O)[C@H]([C@@H](C)O)NC(=O)[C@@H]3CSSC[C@H](NC(=O)[C@H](C)NC(=O)[C@H](Cc4ccc(O)cc4)NC(=O)[C@H](CC(N)=O)NC(=O)[C@@H]4CCCN4C(=O)[C@H](CSSC[C@H](NC(=O)CN)C(=O)N[C@@H](CCCCN)C(=O)NCC(=O)N[C@@H](Cc4ccccc4)C(=O)NCC(=O)N[C@@H](CC(=O)O)C(=O)N[C@@H](CO)C(=O)N3)NC2=O)C(=O)N[C@@H](CO)C(=O)N[C@@H](CO)C(=O)N[C@@H](CCCCN)C(=O)N[C@@H](Cc2c[nH]cn2)C(=O)N[C@@H](CCCCN)C(=O)N[C@@H](Cc2c[nH]c3ccccc23)C(=O)N1)C(C)C)C(N)=O` [HNTX-III] (H-GCKGFGDSCTPGKNECCPNYACSSKHKWCKVYL-NH2; disulfide 2-17, 9-22, 16-29), the IC50 is 162 ± 23 nM at rKv4.2 (setting [1]), 373 ± 65.5 nM on rKv4.3 (setting [2]), 8 ± 2 nM on rKv4.2 N282A and > 20000 nM against rKv4.2 D284K.

On to `CC[C@H](C)[C@H](NC(=O)[C@H](CCC(=O)O)NC(=O)[C@H](Cc1ccc(O)cc1)NC(=O)[C@H](CCCCN)NC(=O)[C@@H]1CSSC[C@@H]2NC(=O)[C@H](CCC(N)=O)NC(=O)[C@H](CC(=O)O)NC(=O)[C@H](CC(N)=O)NC(=O)[C@H](CO)NC(=O)[C@@H]3CCCN3C(=O)[C@H](CC(N)=O)NC(=O)[C@@H]3CSSC[C@H](NC(=O)[C@H](C(C)C)NC(=O)[C@H](CC(C)C)NC(=O)[C@H](CC(N)=O)NC(=O)[C@H](CO)NC(=O)[C@H](CO)NC(=O)[C@H](CCCCN)NC(=O)[C@H](CSSC[C@H](NC(=O)[C@@H](N)CCC(=O)O)C(=O)N[C@@H](CC(C)C)C(=O)NCC(=O)N[C@@H](Cc4ccccc4)C(=O)NCC(=O)N[C@@H](CCCCN)C(=O)NCC(=O)N3)NC2=O)C(=O)N[C@@H](CO)C(=O)N[C@@H](CCCNC(=N)N)C(=O)N[C@@H](CCCCN)C(=O)N[C@@H](Cc2c[nH]cn2)C(=O)N[C@@H](CCCNC(=N)N)C(=O)N[C@@H](Cc2c[nH]c3ccccc23)C(=O)N1)C(N)=O` [HNTX-IV], for which the IC50 on rKv4.2 (setting [1]) is 51 ± 10 nM; at rKv4.3 (setting [2]) it was 189 ± 14.7 nM; against rKv4.2 N282A, 11 ± 2 nM; at rKv4.2 D284K it was > 20000 nM.

As to `CC(C)C[C@@H]1NC(=O)[C@H](Cc2c[nH]c3ccccc23)NC(=O)[C@H](Cc2ccc(O)cc2)NC(=O)[C@H](CCCNC(=N)N)NC(=O)[C@@H](NC(=O)[C@@H](N)CCC(=O)O)CSSC[C@@H]2NC(=O)[C@@H]3CSSC[C@@H](C(=O)N[C@H](C(=O)N[C@@H](Cc4c[nH]c5ccccc45)C(=O)N[C@@H](CC(=O)O)C(=O)N[C@@H](Cc4c[nH]c5ccccc45)C(=O)N[C@H](C(=O)N[C@@H](Cc4ccccc4)C(N)=O)[C@@H](C)O)C(C)C)NC(=O)[C@H](Cc4c[nH]c5ccccc45)NC(=O)CNC(=O)[C@H](Cc4c[nH]cn4)NC(=O)[C@H](CCCCN)NC(=O)[C@@H]4CCCN4C(=O)[C@H](CO)NC(=O)[C@H](CSSC[C@H](NC(=O)[C@H]([C@@H](C)O)NC(=O)CNC1=O)C(=O)N[C@@H](CO)C(=O)N[C@@H](CCCCN)C(=O)N[C@@H]([C@@H](C)O)C(=O)NCC(=O)N[C@@H](CC(=O)O)C(=O)N3)NC(=O)[C@H](CO)NC(=O)[C@H](CC(C)C)NC(=O)[C@H](Cc1c[nH]cn1)NC(=O)[C@H](CO)NC2=O` [HNTX-VIIa] (H-ECRYWLGTCSKTGDCCSHLSCSPKHGWCVWDWTF-NH2; disulfide 2-16, 9-21, 15-28), the IC50 on rKv4.2 (held at -80 mV, step to 0 mV, mean ± S.E.M., read-out: IC50 for rKv4.2) was 18 ± 3.2 nM; on rKv4.3 (setting [2]), 130 ± 14.5 nM; against rKv4.2 N282A it was 21 ± 1 nM; against rKv4.2 D284K (SEM) it was 47 ± 6 nM.

Consider `CC[C@H](C)[C@@H]1NC(=O)[C@@H]2CSSC[C@@H]3NC(=O)[C@H](C(C)C)NC(=O)[C@H](CC(C)C)NC(=O)[C@H](CC(N)=O)NC(=O)[C@@H]4CCCN4C(=O)[C@H](CCCNC(=N)N)NC(=O)[C@H](CSSC[C@H](NC(=O)[C@@H](N)CC(=O)O)C(=O)N[C@@H](CC(C)C)C(=O)NCC(=O)N[C@@H](C)C(=O)N[C@@H](Cc4ccccc4)C(=O)N[C@@H](CCCNC(=N)N)C(=O)N[C@@H](CCCCN)C(=O)N2)NC(=O)[C@H](CSSC[C@@H](C(=O)N[C@@H](CCCCN)C(=O)N[C@@H](Cc2ccc(O)cc2)C(=O)N[C@H](C(=O)N[C@@H](Cc2ccccc2)C(N)=O)C(C)C)NC(=O)[C@H](Cc2c[nH]c4ccccc24)NC(=O)[C@H](CCCNC(=N)N)NC(=O)[C@H](Cc2c[nH]cn2)NC(=O)[C@H](C)NC(=O)[C@H](CO)NC(=O)[C@H](CO)NC3=O)NC(=O)[C@H](CCCCN)NC(=O)[C@H](CC(=O)O)NC(=O)[C@H](CC(N)=O)NC(=O)[C@H](CC(=O)O)NC(=O)[C@@H]2CCCN2C1=O` [mGpTx1-SA] (H-DCLGAFRKCIPDNDKCCRPNLVCSSAHRWCKYVF-NH2; disulfide 2-17, 9-23, 16-30), for which the IC50 was 30000 ± 9000 nM at rKv4.2 (setting [1]) and 2000 ± 300 nM at rKv4.3 (n = 5).
